In US20260256792A1, “TREATMENT OF CHRONIC SPONTANEOUS URTICARIA BY ADMINISTERING (R)-2-[3-[4-AMINO-3-(2-FLUORO-4-PHENOXY-PHENYL)PYRAZOLO[3,4-D]PYRIMIDIN-1-YL]PIPERIDINE-1-CARBONYL]-4-METHYL-4-[4-(OXETAN-3-YL)PIPERAZIN-1-YL]PENT-2-ENENITRILE” (priority 2023, published 2026):

Tested on: moderate-to-severe chronic spontaneous urticaria (CSU)
Test: Phase 2 CSU study: urticaria activity score over 7 days (UAS7)
Format: in vivo, human
Design: key to UAS7 Median / UAS7 Change from baseline Median / UAS7 change from baseline, Q1 / UAS7 change from baseline, Q3 / UAS7 change from baseline, Max / UAS7 Change from baseline LS Mean (SE): UAS7 points; daily UAS score ranges 0–6 points/day, over 7 days
Excerpt: The study comprises a 12 week, randomized, double-blind, placebo-controlled, multi-center, dose-ranging efficacy and safety phase, followed by a 40 week open label extension (OLE) phase (see FIG. 1). The study consists of three phases and an optional OLE phase. […] Clinically, CSU is characterized by the spontaneous and recurrent appearance of pruritic hives. The proposed primary endpoints were the UAS7 at Week 12 in EU and EU reference countries and the ISS7 in the US. Regardless of where a participant was from, all assessments were the same. The UAS7 score is a composite score containing both the HSS7 and the ISS7. This allowed a global assessment of the two key components of urticaria: hives and itch. […] The UAS is a validated PRO measure. […] The daily UAS scores range from 0 to 6 point/day. […] Patients were to complete the UAS using the e-diary. […] The following secondary endpoints were to be analyzed using the same approach as for the primary endpoint: • Change from baseline in UAS7 at Week 4 • Change from baseline in UAS7 at Week 12 (for US and US reference countries) • Change from baseline in ISS7 at Week 12 (except US and US reference countries) • Change from baseline in HSS7 at Week 12 The following responder secondary endpoints were to be analyzed using the Cochran-Mantel-Haenszel test adjusted by region: • Proportion of participants with UAS7<6 at Week 12 • Proportion of participants with UAS7=0 at Week 12 Participants who received selected prohibited medications and/or rescue medications were to be considered as non-responders for time points after the medication usage. For other participants, all available data including those collected during the off-treatment period were to be used to determine the responder/non-responder status. Missing data were to be considered as non-responders.

[1] = ITT Population, 400 mg TID, Week 1
[2] = ITT Population, 400 mg TID, Week 12
[3] = ITT population, 400 mg BID, Week 1
[4] = ITT population, 400 mg BID, Week 3
[5] = ITT population, 400 mg BID, Week 4
[6] = ITT population, 400 mg BID, Week 5
[7] = ITT population, 400 mg BID, Week 6
[8] = ITT population, 400 mg BID, Week 7
[9] = ITT population, 400 mg BID, Week 8
[10] = ITT population, 400 mg BID, Week 9
[11] = ITT population, 400 mg BID, Week 10
[12] = ITT population, 400 mg BID, Week 11
[13] = ITT population, 400 mg BID, Week 12
[14] = ITT population, 400 mg QPM, Week 1
[15] = ITT population, 400 mg QPM, Week 2
[16] = ITT population, 400 mg QPM, Week 4
[17] = ITT population, 400 mg QPM, Week 6
[18] = ITT population, 400 mg QPM, Week 7
[19] = ITT population, 400 mg QPM, Week 8
[20] = ITT population, 400 mg QPM, Week 9
[21] = ITT population, 400 mg QPM, Week 10
[22] = ITT population, 400 mg QPM, Week 11
[23] = ITT population, 400 mg QPM, Week 12
[24] = ITT population, 400 mg TID, Week 2
[25] = ITT population, 400 mg TID, Week 3
[26] = ITT population, 400 mg TID, Week 4
[27] = ITT population, 400 mg TID, Week 5

## CC(C)(C=C(C#N)C(=O)N1CCC[C@@H](n2nc(-c3ccc(Oc4ccccc4)cc3F)c3c(N)ncnc32)C1)N1CCN(C2COC2)CC1 [rilzabrutinib, (R)-2-[3-[4-amino-3-(2-fluoro-4-phenoxy-phenyl)pyrazolo[3,4-d]pyrimidin-1-yl]piperidine-1-carbonyl]-4-methyl-4-[4-(oxetan-3-yl)piperazin-1-yl]pent-2-enenitrile]
ITT Population, 400 mg QPM, Week 5
  UAS7 Post-baseline Mean (SD): 20.58 (9.05)
[1]
  UAS7 % Change difference for rilzabrutinib vs. placebo LS Mean (95% CI): −29.94%
  UAS7 % Change from baseline LS Mean (SE): −40.18%
  UAS7 Change from baseline LS Mean (SE): −12.72
  UAS7 Post-baseline Mean (SD): 16.95 (10.13)
[2]
  UAS7 % Change difference for rilzabrutinib vs. placebo LS Mean (95% CI): −26.23%
  UAS7 % Change from baseline LS Mean (SE): −59.16%
  UAS7 Change difference for rilzabrutinib vs. placebo LS Mean (95% CI): −6.76
  UAS7 Change from baseline LS Mean (SE): −17.95
[3]
  UAS7 % Change difference for rilzabrutinib vs. placebo LS Mean (95% CI): −23.93%
  UAS7 % Change from baseline LS Mean (SE): −34.18%
  UAS7 Change difference for rilzabrutinib vs. placebo LS Mean (95% CI): −6.18
  UAS7 Change from baseline LS Mean (SE): −10.01
  UAS7 Post-baseline Mean (SD): 19.98 (11.35)
[4]
  UAS7 % Change difference for rilzabrutinib vs. placebo LS Mean (95% CI): −18.34%
  UAS7 % Change from baseline LS Mean (SE): −39.97%
  UAS7 Change difference for rilzabrutinib vs. placebo LS Mean (95% CI): −4.74
  UAS7 Change from baseline LS Mean (SE): −12.33
  UAS7 Post-baseline Mean (SD): 17.63 (12.02)
[5]
  UAS7 % Change difference for rilzabrutinib vs. placebo LS Mean (95% CI): −20.76%
  UAS7 % Change from baseline LS Mean (SE): −44.02%
  UAS7 Change difference for rilzabrutinib vs. placebo LS Mean (95% CI): −5.34
  UAS7 Change from baseline LS Mean (SE): −13.41
  UAS7 Post-baseline Mean (SD): 15.62 (12.20)
[6]
  UAS7 % Change difference for rilzabrutinib vs. placebo LS Mean (95% CI): −10.88%
  UAS7 % Change from baseline LS Mean (SE): −42.67%
  UAS7 Change difference for rilzabrutinib vs. placebo LS Mean (95% CI): −2.61
  UAS7 Change from baseline LS Mean (SE): −12.81
  UAS7 Post-baseline Mean (SD): 16.44 (13.70)
[7]
  UAS7 % Change difference for rilzabrutinib vs. placebo LS Mean (95% CI): −14.76%
  UAS7 % Change from baseline LS Mean (SE): −41.66%
  UAS7 Change difference for rilzabrutinib vs. placebo LS Mean (95% CI): −3.64
  UAS7 Change from baseline LS Mean (SE): −12.78
  UAS7 Post-baseline Mean (SD): 16.51 (12.98)
[8]
  UAS7 % Change difference for rilzabrutinib vs. placebo LS Mean (95% CI): −20.46%
  UAS7 % Change from baseline LS Mean (SE): −47.80%
  UAS7 Change difference for rilzabrutinib vs. placebo LS Mean (95% CI): −5.50
  UAS7 Change from baseline LS Mean (SE): −14.56
  UAS7 Post-baseline Mean (SD): 15.04 (12.35)
[9]
  UAS7 % Change difference for rilzabrutinib vs. placebo LS Mean (95% CI): −21.40%
  UAS7 % Change from baseline LS Mean (SE): −53.24%
  UAS7 Change difference for rilzabrutinib vs. placebo LS Mean (95% CI): −5.61
  UAS7 Change from baseline LS Mean (SE): −15.96
  UAS7 Post-baseline Mean (SD): 13.59 (13.23)
[10]
  UAS7 % Change difference for rilzabrutinib vs. placebo LS Mean (95% CI): −24.16%
  UAS7 % Change from baseline LS Mean (SE): −52.21%
  UAS7 Change difference for rilzabrutinib vs. placebo LS Mean (95% CI): −5.85
  UAS7 Change from baseline LS Mean (SE): −15.45
  UAS7 Post-baseline Mean (SD): 14.13 (14.43)
[11]
  UAS7 % Change difference for rilzabrutinib vs. placebo LS Mean (95% CI): −17.60%
  UAS7 % Change from baseline LS Mean (SE): −51.13%
  UAS7 Change difference for rilzabrutinib vs. placebo LS Mean (95% CI): −4.46
  UAS7 Change from baseline LS Mean (SE): −15.36
  UAS7 Post-baseline Mean (SD): 14.82 (14.24)
[12]
  UAS7 % Change difference for rilzabrutinib vs. placebo LS Mean (95% CI): −19.11%
  UAS7 % Change from baseline LS Mean (SE): −49.87%
  UAS7 Change difference for rilzabrutinib vs. placebo LS Mean (95% CI): −4.55
  UAS7 Change from baseline LS Mean (SE): −14.95
  UAS7 Post-baseline Mean (SD): 14.55 (13.86)
[13]
  UAS7 % Change difference for rilzabrutinib vs. placebo LS Mean (95% CI): −16.41%
  UAS7 % Change from baseline LS Mean (SE): −49.34%
  UAS7 Change difference for rilzabrutinib vs. placebo LS Mean (95% CI): −3.62
  UAS7 Change from baseline LS Mean (SE): −14.82
  UAS7 Post-baseline Mean (SD): 14.70 (14.29)
[14]
  UAS7 % Change difference for rilzabrutinib vs. placebo LS Mean (95% CI): −12.22%
  UAS7 % Change from baseline LS Mean (SE): −22.47%
  UAS7 Change difference for rilzabrutinib vs. placebo LS Mean (95% CI): −3.61
  UAS7 Change from baseline LS Mean (SE): −7.44
  UAS7 Post-baseline Mean (SD): 23.84 (8.66)
[15]
  UAS7 % Change difference for rilzabrutinib vs. placebo LS Mean (95% CI): −6.32%
  UAS7 % Change from baseline LS Mean (SE): −25.19%
  UAS7 Change difference for rilzabrutinib vs. placebo LS Mean (95% CI): −1.80
  UAS7 Change from baseline LS Mean (SE): −8.14
  UAS7 Post-baseline Mean (SD): 23.40 (8.85)
[16]
  UAS7 % Change difference for rilzabrutinib vs. placebo LS Mean (95% CI): −5.97%
  UAS7 % Change from baseline LS Mean (SE): −29.23%
  UAS7 Change difference for rilzabrutinib vs. placebo LS Mean (95% CI): −1.48
  UAS7 Change from baseline LS Mean (SE): −9.55
  UAS7 Post-baseline Mean (SD): 21.82 (8.73)
[17]
  UAS7 % Change difference for rilzabrutinib vs. placebo LS Mean (95% CI): −7.24%
  UAS7 % Change from baseline LS Mean (SE): −34.14%
  UAS7 Change difference for rilzabrutinib vs. placebo LS Mean (95% CI): −1.88
  UAS7 Change from baseline LS Mean (SE): −11.02
  UAS7 Post-baseline Mean (SD): 20.12 (10.28)
[18]
  UAS7 % Change difference for rilzabrutinib vs. placebo LS Mean (95% CI): −7.16%
  UAS7 % Change from baseline LS Mean (SE): −34.50%
  UAS7 Change difference for rilzabrutinib vs. placebo LS Mean (95% CI): −1.89
  UAS7 Change from baseline LS Mean (SE): −10.95
  UAS7 Post-baseline Mean (SD): 20.98 (9.91)
[19]
  UAS7 % Change difference for rilzabrutinib vs. placebo LS Mean (95% CI): −3.38%
  UAS7 % Change from baseline LS Mean (SE): −35.22%
  UAS7 Change difference for rilzabrutinib vs. placebo LS Mean (95% CI): −0.53
  UAS7 Change from baseline LS Mean (SE): −10.88
  UAS7 Post-baseline Mean (SD): 21.01 (10.40)
[20]
  UAS7 % Change difference for rilzabrutinib vs. placebo LS Mean (95% CI): −8.48%
  UAS7 % Change from baseline LS Mean (SE): −36.53%
  UAS7 Change difference for rilzabrutinib vs. placebo LS Mean (95% CI): −1.73
  UAS7 Change from baseline LS Mean (SE): −11.33
  UAS7 Post-baseline Mean (SD): 20.18 (10.10)
[21]
  UAS7 % Change difference for rilzabrutinib vs. placebo LS Mean (95% CI): −3.82%
  UAS7 % Change from baseline LS Mean (SE): −37.35%
  UAS7 Change difference for rilzabrutinib vs. placebo LS Mean (95% CI): −0.76
  UAS7 Change from baseline LS Mean (SE): −11.66
  UAS7 Post-baseline Mean (SD): 20.15 (10.55)
[22]
  UAS7 % Change difference for rilzabrutinib vs. placebo LS Mean (95% CI): −5.62%
  UAS7 % Change from baseline LS Mean (SE): −36.39%
  UAS7 Change difference for rilzabrutinib vs. placebo LS Mean (95% CI): −0.52
  UAS7 Change from baseline LS Mean (SE): −10.92
  UAS7 Post-baseline Mean (SD): 21.08 (11.00)
[23]
  UAS7 % Change difference for rilzabrutinib vs. placebo LS Mean (95% CI): −2.09%
  UAS7 % Change from baseline LS Mean (SE): −35.03%
  UAS7 Change difference for rilzabrutinib vs. placebo LS Mean (95% CI): 0.97
  UAS7 Change from baseline LS Mean (SE): −10.22
  UAS7 Post-baseline Mean (SD): 21.80 (10.94)
[24]
  UAS7 % Change difference for rilzabrutinib vs. placebo LS Mean (95% CI): −29.83%
  UAS7 % Change from baseline LS Mean (SE): −48.69%
  UAS7 Change difference for rilzabrutinib vs. placebo LS Mean (95% CI): −8.72
  UAS7 Change from baseline LS Mean (SE): −15.06
  UAS7 Post-baseline Mean (SD): 14.58 (10.74)
[25]
  UAS7 % Change difference for rilzabrutinib vs. placebo LS Mean (95% CI): −28.32%
  UAS7 % Change from baseline LS Mean (SE): −49.95%
  UAS7 Change difference for rilzabrutinib vs. placebo LS Mean (95% CI): −7.56
  UAS7 Change from baseline LS Mean (SE): −15.15
  UAS7 Post-baseline Mean (SD): 14.42 (9.77)
[26]
  UAS7 % Change difference for rilzabrutinib vs. placebo LS Mean (95% CI): −25.68%
  UAS7 % Change from baseline LS Mean (SE): −48.94%
  UAS7 Change difference for rilzabrutinib vs. placebo LS Mean (95% CI): −6.71
  UAS7 Change from baseline LS Mean (SE): −14.78
  UAS7 Post-baseline Mean (SD): 13.93 (9.77)
[27]
  UAS7 % Change difference for rilzabrutinib vs. placebo LS Mean (95% CI): −22.21%
  UAS7 % Change from baseline LS Mean (SE): −54.01%
  UAS7 Change difference for rilzabrutinib vs. placebo LS Mean (95% CI): −6.47
